This note sets out measurements from US11229665B2, “Compound of glycosaminoglycan and its fabrication method as well as application” (Holy Stone Healthcare Co., Ltd., priority 2013, dated 2022).

The nature of series [1]: Adhesion of fluorescent HA (HA-f) in colon tissue (IVIS image system). To be noted: 0.5% HA-f, 2 hours. The arrangement: species or system SD-rat (Sprague-Dawley Rat). The method, then:
1. 0.25 g high molecule weight sodium hyaluronate powder (HHA; Mw: 2 MDa; Freda) and 0.25 g low molecule weight sodium hyaluronate powder (LHA; Mw: 0.35 MDa; Freda) were added into 50 ml PBS buffer (Phosphate buffered saline) respectively to form 0.5% solution, and then stirred for 6 hours until the powder was totally dissolved. 0.25 g medium molecule weight sodium hyaluronate powder (MHA; Mw: 1 MDa; Freda) was added into 50 ml PBS buffer, and then stirred for 6 hours until the powder was totally dissolved and ready for use in the following steps.
2. Fluorescent HA (HA-f) was prepared by (1) 0.39 g MES free acid (2-(N-morpholino) ethanesulfonic acid, Calbiochem) and was dissolved in 100 ml dd water. (2) Solution A: 65 mg fluroresceinamine powder, (isomer I, Fluka) was dissolved in 9 ml 95% EtOH solution and then stirred for 10 minutes under a condition that light was prohibited. […] (8) The product after reaction was poured into a dialysis tubing (MW: 12000˜14000) in 5 L dd water as a dialysis solution and then stirred for 5 days at 4° C. under a condition that light was prohibited with dialysis solution being changed every 12 hours until the dialysis solution had no fluorescence. […]
7. All values are calculated as means of n observations. The histological index was analyzed by Student's t-test.

The test system of series [2] is HT29 cells. Kind of series: In vitro cytotoxicity (MTT cell viability). In kind it is cell-based, human. To be noted: 24 hours.
Description: HT29 cells were seeded at low density of 1×10^4 cells per well in 96 well-plates in medium containing high glucose DMEM, 10% FBS, 1% sodium pyruvate, 1% Penicillin, Streptomycin, and Neomycin.
(§1) Drug effect on cellular viability was evaluated using an assay based on the cleavage of the yellow dye 3-(4, 5-dimethyl-2-thiazolyl)-2, 5-diphenyl-2H-tetrazolium bromide (MTT) to purple formazan crystals by dehydrogenase activity in mitochondria.
(§2) After drug treatment for 24 hours, medium was removed and cell layers were rinsed with medium following MTT diluted (0.5 mg/ml) in medium for 4 hours at 37° C. incubator (5% CO2).
(§3) The cells were then added with 100 μl/well DMSO and the optical density of the cellular homogenate was measured at 570 nm using ELISA reader.
(§4) The fraction of live cells was calculated by dividing the mean optical density obtained from treated cells by the mean optical density from untreated control cells.
(§5) After drug treatment for 24 hr, medium was removed and cell layers were rinsed with medium following MTT diluted (0.5 mg/ml) in medium for 4 hours at 37° C. incubator (5% CO2).
Drug effect on cellular viability was evaluated using an assay based on the cleavage of the yellow dye 3-(4,5-dimethyl-2-thiazolyl)-2,5-diphenyl-2H-tetrazolium bromide (MTT) to purple formazan crystals by dehydrogenase activity in mitochondria.
Series [3] has as its system HCT15 cells. Kind of series: In vitro cytotoxicity (MTT cell viability). In kind it is cell-based, human. Conditions: 24 hours.
Description: HCT15 cells were seeded at low density of 1×10^4 cells per well in 96 well-plates in medium containing DMEM/F12, 10% FBS, 1% sodium pyruvate, 1% Penicillin, Streptomycin, and Neomycin.
as §1, §2, §3, §4, §5
Series [4] is described as follows: Body weight in xenograft nude mice model. In kind it is in vivo, BALB/c athymic (nu+/nu+) mice. To be noted: HT29 xenograft mice; 1.5 mg/kg Nimesulide or equivalent, tail vein, within 24 days. The method, then: 3. Tumor sizes and body weight were measured every 3 or 5 days for the duration of the experiment.
6. Mice were administered via tail vein injections at doses of Nimesulide (1.5 mg/kg), HA-Nimesulide (equivalent to 1.5 mg/kg of Nimesulide) or PBS respectively with an interval of 48 or 72 hours.
7. The tumor size and change in body weight of each mouse were recorded.

The mark [5] stands for this setting: Nimesulide series, 3.125-200 μM.
Setting [6] is: Lenalidomide series, 3.125-400 μM.

Take sodium hyaluronate [1 MDa HA]: the “fluorescent index of adhesion” value in series [1] (normal or injured colon tissues) is “higher than 2 MDa HA”.

Take sodium hyaluronate [350 KDa HA]: the “fluorescent index of adhesion” value in series [1] (injured colon tissues, normal colon tissue defined as 1) was “obviously higher than HAs of the other two average molecular weights”.

Consider `CS(=O)(=O)Nc1ccc([N+](=O)[O-])cc1Oc1ccccc1` [NiNO2, Nimesulide], for which the “cytotoxicity effect (cell viability, MTT)” value in series [2] (setting [5]) and in series [3] (setting [5]) was “generally better than modified production” each time. Moreover, the average body weight entry in series [4] is “almost the same”.

As for `Nc1cccc2c1CN(C1CCC(=O)NC1=O)C2=O` (stereo not shown) [Lenalidomide], the “cytotoxicity effect (cell viability, MTT)” value in series [2] (setting [6]) and in series [3] (setting [6]) was “almost the same in both cell lines” in each case.
